This note sets out measurements from patent US20150231199A1, “PEPTIDES AND THEIR USES” (priority 2012, published 2015).

In general, MIC refers to the lowest concentration found to suppress growth. Higher therefore signals a need for much substance. In general, CC50 refers to the concentration giving 50% cytotoxicity. A low value points to greater toxicity to the cells.

Series [1] concerns Methicillin-resistant Staphylococcus aureus (MRSA). The series is classed as cell-based. As to the method:
(§1) V2-dimer and all lipopeptides (FIG. 1A) used in this study were purchased from Mimotopes. All peptides were prepared by dissolving in sterile water to make 1000 μg/mL stock solutions. Minimum Inhibitory Concentration (MIC) determination was carried out in Mueller Hinton Broth (MHB) using the broth macro-dilution method as described by the Clinical and Laboratory Standards Institute (CLSI). Then, cation-adjusted MHB (CA-MHB) was used to prepare serial two fold dilutions of the compounds in test tubes. The concentration of the inoculums suspension was also adjusted to approximately 5×10^5 Colony Forming Units (CFU)/mL using MHB. Bacteria were incubated with the compounds for 24 hours at 35° C. prior to reading. In this study, Gram-positive strains used were Staphylococcus aureus DM4001 and Methicillin-resistant Staphylococcus aureus (MRSA) DM9808. Gram-negative strains used were Klebsiella pneumoniae DM4299, Pseudomonas aeruginosa ATCC23155 and Escherichia coli ATCC27922.
(§2) Methods used are as described in Example 1 above.

The subject of the next series is Pseudomonas aeruginosa. The series is classed as cell-based. The procedure: as §1, §2
The next series concerns Staphylococcus aureus. In kind it is cell-based. As to the method: as §1, §2
In series [2] the test system is Escherichia coli ATCC27922. The series is classed as cell-based. As to the method: as §1
Series [3] relates to Klebsiella pneumoniae DM4299. The series is classed as cell-based. As to the method:
as §1

Series [4] has as its system red blood cells (RBCs) of New Zealand white rabbits. Put plainly: in vitro. In kind it is cell-based, rabbit. As to the method:
Fresh red blood cells (RBCs) of New Zealand white rabbits were used for this experiment. The RBCs obtained were centrifuged at 3000 rpm for 10 min. Supernatant was removed and washed twice with sterile PBS Buffer (20 mM, 100 mM NaCl, pH 7). The RBCs were further diluted to 8% stock solution in PBS. Peptides were dissolved in PBS with desired stock concentrations. When compounds were mixed with RBCs, desired concentration of 4% RBCs was obtained. For C14V2D and C16V2D, they were dissolved in Dimethylformamide ([…]; DMF) with desired stock concentrations. When compounds were mixed with RBCs, desired concentration of 4% RBCs and 0.5% DMF was obtained. DMF concentration of <1% was used as it had negligible hemolytic activity on RBCs. The mixtures were added to 1.5 mL centrifuge tubes and incubated at 37° C. for 1 h. After incubation, the blood was centrifuged at 3000 rpm for 3 min at 4° C. 100 μL of the supernatant was transferred into transparent 96-well plate. The absorbance was measured at 576 nm using a microplate reader (TECAN Infinite 200M Pro). 2% Triton X-100 was used as positive control. PBS was used as negative controls. The amount of hemoglobin released was calculated using the following equation: […]

A further series deals with Klebsiella pneumoniae. The series is classed as cell-based. The procedure:
The minimum inhibitory concentration (MIC) was determined using the broth microdilution method. Bacterial cells (shown in Table 6) are grown in Mueller Hinton Broth (MHB) overnight. 100 μL of adjusted inoculum in MHB is added to 100 μL of each dilution of peptide or antibiotics dissolved in the broth, so as to yield a final cell density of 10^5 to 10^6 cfu/mL in each well. The plates were incubated at 35° C. for 24 h and the absorbance at 600 nm (OD600) was monitored every 30 minutes. A positive control well contained the broth and organisms (no peptides/antibiotics), and a negative control tube contains only the broth. The MIC of peptides for each clinical isolate or reference organism was recorded as the lowest concentration of peptide/antibiotic that inhibited visible growth of the test organism. To study the effect of Mg2+ on MIC of branched peptides, the concentration of MgCl2 was varied in MHB and the MIC was determined as before.

In series [5] the test system is P. aeruginosa. Put plainly: Bacterial viability assay (ED50). The series is classed as cell-based, Pseudomonas aeruginosa. To be noted: P. aeruginosa ATCC 9027 and ATCC 27853; FIG. 12. The procedure: Cell viability was conducted for two Gram-negative bacteria (Pa 9027 and Pa 27853). The cultures were grown overnight in TS agar and a few isolated colonies were inoculated to achieve a turbidity equivalent to 0.5 McFarland standard. The cell concentration was adjusted to […] with 10 mM phosphate buffer and separated into different tubes to get final concentration of 10^5 CFU/ml. The peptides were added to the individual tubes to obtain concentrations of ⅛ MIC, ¼ MIC, ½ MIC, 1 MIC, 2 MIC and 4 MIC. The tubes were incubated at 37° C. for 22 h. Serial dilution was performed and 100 uL of the suspension was aliquot into MHA plate. The plates were incubated for 24 h at 37° C. for colony counting. Positive control was performed at 0 h and 22 h.

Series [6] concerns P. aeruginosa. Put plainly: Time-kill kinetics assay. The series is classed as cell-based, Pseudomonas aeruginosa. To be noted: both Pseudomonas strains at 1× and 2×MIC; compared with B2088; FIG. 13. The procedure: The kinetics of bactericidal action was performed by the assay reported before. Briefly, few colonies of overnight grown P. aeruginosa strains were collected from tryptic soy agar plate and suspended US pharmacopeia phosphate buffer (pH 7.2). The suspension was adjusted to an initial inoculum of 10^6 CFU/mL and incubated with various concentrations of B2088 and B2088—99 at 35° C. 0.1 mL aliquots were withdrawn at various time intervals, diluted […] fold using the same buffer, plated on tryptic soy agar plates and incubated at 35° C. The colonies were counted after 24 h incubation and expressed as CFU/mL. Buffer without peptides served as a positive control and % bacterial viability is estimated using the following equation:
Bacterial viability=1−(CFU/mL)peptide/(CFU/mL)control*100

A further series has as its system P. aeruginosa ATCC 9027. Kind of series: Outer membrane (OM) permeability assay (NPN). To be noted: FIG. 14. The series is classed as cell-based, Pseudomonas aeruginosa. The procedure:
To probe the OM permeability of peptides, a membrane impermeable probe N-phenyl-1-naphthyl amine (NPN) was used in the present study. The overnight cultured P. aeruginosa ATCC 9027 cells were harvested by centrifugation at 3000 rpm, 4° C. The resulting pellet was washed twice and resuspended in 5 mM HEPES buffer (pH 7.2) to OD600 of 0.4. The cells were placed in a 10 mm stirred cuvette and NPN was added to a final concentration of 10 μM. Appropriate concentrations of B2088 was added and the increase in fluorescence intensity was monitored on a Quanta Master fluorescence spectrophotometer (Photon Technology International, New Jersey, USA). The excitation and emission wavelengths were set at 350 and 410 nm with slid widths at 2 and 5 nm, respectively. The % NPN uptake was calculated relative to increase in NPN fluorescence intensity after the addition of 50 μM polymyxin B.

Series [7] is described as follows: in vitro. The series is classed as cell-based. Conditions: human. As to the method: The cytotoxicity of individual compounds screened was determined by the lactate dehydrogenase (LDH) assay. In brief, human corneal fibroblast cells were plated at a density of 10,000 cells per well in a 96-well opaque white plate (SPL Life Sciences Inc). Test compounds of various concentrations and controls were added to appropriate wells such that the final volume is 100 μl in each well. After 4 hours of exposure to the test compounds, the plates were removed from 37° C. incubator and equilibrated to 22° C. for 30 minutes. One hundred microliters of Cyto-TOX One reagent (Promega Inc. USA) was added to each well and the LDH assay was performed according to manufacturer's instructions. Fluorescence was assessed at an excitation wavelength of 560 nm and an emission wavelength of 590 nm using a micro-plate reader (Tecan Infinite 200 Pro, Switzerland). The cells exposed to 1% Triton X-100 were used as a positive control and treated as maximum releasing of LDH. The percent specific cytotoxicity of each compound was determined using the formula below (I=intensity):
% Cytotoxicity=[(Iexperiments)−(Inegative controls)]/[Ipositive controls)−(Inegative controls)]×100

Series [8] can be described thus: in vitro. In kind it is cell-based. To be noted: human. The procedure:
Cells were plated at a density of 10,000 cells per well in a 96-well opaque white plate (SPL Life Sciences Inc. Korea). Test compounds of various concentrations and controls were added to appropriate wells such that the final volume is 100 μl in each well. After 4 hours of exposure to the test compounds, the plates were removed from 37° C. incubator and equilibrated to 22° C. for 30 minutes. One hundred microliters of CellTiter-Glo reagent (Promega Inc. USA) was added to each well and the ATP assay was performed according to manufacturer's instructions. Luminescence was assessed using a micro-plate reader (Tecan Infinite 200 Pro, Switzerland). The cells exposed to 1% Triton X-100 were used as a positive control. The percent cell viable of each compound was determined using the formula below (L=Luminescence detected):
% Viability=[(Lnegative controls)−(Lexperiments)]/[(Lnegative controls)−(Lpositive controls)]×100
The source holds these as a separate data set.

The structures appear in SMILES notation. In brackets after ≈: the same amount, converted by molar mass. Read-outs that look alike come from different tables or passages of the source. Positions of bridges follow the written chain, without caps; N, C: chain ends. Residues, ends and D or L forms follow the SMILES beside them. Chains are numbered I, II in the order given. *: point of attachment. Myristoyl = CCCCCCCCCCCCCC(=O)*; Lauroyl = CCCCCCCCCCCC(=O)*

In the case of `CCCCCCCCCCCC(=O)N[C@@H](CCCNC(=N)N)C(=O)NCC(=O)N[C@@H](CCCNC(=N)N)C(=O)N[C@@H](CCCCN)C(=O)N[C@H](C(=O)N[C@H](C(=O)N[C@@H](CCCNC(=N)N)C(=O)N[C@@H](CCCNC(=N)N)C(=O)NCCCC[C@H](NC(=O)[C@H](CCCNC(=N)N)NC(=O)[C@H](CCCNC(=N)N)NC(=O)[C@@H](NC(=O)[C@@H](NC(=O)[C@H](CCCCN)NC(=O)[C@H](CCCNC(=N)N)NC(=O)CNC(=O)[C@H](CCCNC(=N)N)NC(=O)CCCCCCCCCCC)C(C)C)C(C)C)C(=O)N[C@@H](CCCCN)C(=O)O)C(C)C)C(C)C` [Peptide C12-V2D, (C11H23—CO—NH—RGRKVVRR)2KK] (I: Lauroyl-RGRKVVRRKK-OH / II: Lauroyl-RGRKVVRR; amide I:9-II:C), the MIC (in series [1]; in the series with Pseudomonas aeruginosa; with Staphylococcus aureus; in series [2]; in series [3]) was 4.71 µM (≈ 12.5 µg/mL) throughout. In [4], this molecule showed an HC10 of 542.8 ± 53.0 µg/mL.

For the molecule `CCCCCCCCCCCCCC(=O)N[C@@H](CCCNC(=N)N)C(=O)NCC(=O)N[C@@H](CCCNC(=N)N)C(=O)N[C@@H](CCCCN)C(=O)N[C@H](C(=O)N[C@H](C(=O)N[C@@H](CCCNC(=N)N)C(=O)N[C@@H](CCCNC(=N)N)C(=O)NCCCC[C@H](NC(=O)[C@H](CCCNC(=N)N)NC(=O)[C@H](CCCNC(=N)N)NC(=O)[C@@H](NC(=O)[C@@H](NC(=O)[C@H](CCCCN)NC(=O)[C@H](CCCNC(=N)N)NC(=O)CNC(=O)[C@H](CCCNC(=N)N)NC(=O)CCCCCCCCCCCCC)C(C)C)C(C)C)C(=O)N[C@@H](CCCCN)C(=O)O)C(C)C)C(C)C` [Peptide C14-V2D, (C13H23—CO—NH—RGRKVVRR)2KK] (I: Myristoyl-RGRKVVRRKK-OH / II: Myristoyl-RGRKVVRR; amide I:9-II:C; N-terminus and C-terminus assumed), the MIC in [1] was determined as 2.30 µM (≈ 6.24 µg/mL); with Pseudomonas aeruginosa, 2.30 µM (≈ 6.24 µg/mL); against Staphylococcus aureus, 2.30 µM (≈ 6.24 µg/mL); in [2] it was 1.15 µM (≈ 3.12 µg/mL); in [3] it was 9.22 µM (≈ 25 µg/mL). Also, in [4], the HC10 entry is reported as “^b251.82 ± 5.2 ug/mL”.

Turning to `N=C(N)NCCC[C@H](NC(=O)CNC(=O)CNC(=O)[C@H](CCCCN)NC(=O)[C@H](CCCNC(=N)N)NC(=O)CNC(=O)[C@@H](N)CCCNC(=N)N)C(=O)N[C@@H](CCCNC(=N)N)C(=O)NCCCC[C@H](NC(=O)[C@H](CCCNC(=N)N)NC(=O)[C@H](CCCNC(=N)N)NC(=O)CNC(=O)CNC(=O)[C@H](CCCCN)NC(=O)[C@H](CCCNC(=N)N)NC(=O)CNC(=O)[C@@H](N)CCCNC(=N)N)C(=O)N[C@@H](CCCCN)C(=O)O` [Peptide G2D, (RGRKGGRR)2KK] (I: H-RGRKGGRRKK-OH / II: H-RGRKGGRR; amide I:9-II:C; N-terminus and C-terminus assumed), the MIC in [1] is 5.89 µM (≈ 12.5 µg/mL); in the series on Pseudomonas aeruginosa it was 2.94 µM (≈ 6.24 µg/mL); with Staphylococcus aureus it was 5.66 µM (≈ 12 µg/mL); in series [3], 2.94 µM (≈ 6.24 µg/mL); against Klebsiella pneumoniae (24 h), 2.9 µM (≈ 6.16 µg/mL). Also, the “ED50 compared with B2088” value with P. aeruginosa [5] is “two times lower”. The kill kinetics result with P. aeruginosa [6] was “faster kill kinetics”. Also, the “PC50 (concentration for 50% increase in NPN fluorescence intensity) compared with B2088” value with P. aeruginosa ATCC 9027 is reported as “higher”.

`CC(C)[C@H](NC(=O)[C@H](CCCCN)NC(=O)[C@H](CCCNC(=N)N)NC(=O)CNC(=O)[C@@H](N)CCCNC(=N)N)C(=O)N[C@H](C(=O)N[C@@H](CCCNC(=N)N)C(=O)N[C@@H](CCCNC(=N)N)C(=O)NCCCC[C@H](NC(=O)[C@H](CCCNC(=N)N)NC(=O)[C@H](CCCNC(=N)N)NC(=O)[C@@H](NC(=O)[C@@H](NC(=O)[C@H](CCCCN)NC(=O)[C@H](CCCNC(=N)N)NC(=O)CNC(=O)[C@@H](N)CCCNC(=N)N)C(C)C)C(C)C)C(=O)N[C@@H](CCCCN)C(=O)O)C(C)C` [Peptide V2D, (RGRKVVRR)2KK] (I: H-RGRKVVRRKK-OH / II: H-RGRKVVRR; amide I:9-II:C): the MIC is 2.73 µM (≈ 6.25 µg/mL) in [1]; 5.46 µM (≈ 12.5 µg/mL) against Pseudomonas aeruginosa; 5.46 µM (≈ 12.5 µg/mL) with Staphylococcus aureus; 2.73 µM (≈ 6.25 µg/mL) in series [2]; 5.46 µM (≈ 12.5 µg/mL) in [3]; 2.7 µM (≈ 6.19 µg/mL) in the series with Klebsiella pneumoniae. Further, the HC10 in series [4] (red cells of rabbit, 1 h) was over 2000 µg/mL. The CC50 at 4 h in “in vitro [7]” and in the series “in vitro [8]” was over 1000 µM each time.
